Results published in patent US5082828A, “Eclosion hormone peptides” (Sandoz Ltd., priority 1991, dated 1992).

Assays:
[1] = system: pharate adult H. virescens; design: species or system Heliothis virescens; conditions: in vivo
Description: The biological activity of EH in fractions from each purification step is detected using a pharate adult H. virescens in vivo assay, similar to that described by Fugo (1983) Appl. Ent. Zoo. 18:540-44 and Truman (1973) Biol. Bull. 14:44:200-211, both of which are incorporated by reference. Insects are injected in the dorsal thorax with 5 μl aliquots dissolved in physiological saline, approximately 7 hr before normal eclosion, which occurs just after the onset of darkness. Moths eclosing within 3 hr of injection are scored as receiving EH, a positive response.

[2] = system: larval molt; conditions: EH present in the hemolymph during a sensitive period when it is normally absent; cited from earlier work
[3] = system: late second stadium M. sexta; assay type: in vivo, Manduca sexta
Description: The biological activity of isolated EH is assayed as follows. Late second stadium M. sexta are selected for assay when third stadium mandibles are visible through the fluid-filled second stadium head capsule. Development of these larvae, held at 31° C., is checked at 15 min intervals until an air bubble first appears in the head capsule. "Air bubble" larvae are immediately injected in the dorsal abdomen with 1 μl of the test fractions, and time to molt of treated and controls is compared at room temperature ~21° C.). Mean time to molt for EH-affected larvae is 50 min; that for controls is 109 min. Purified EH is active at 0.1 ng per pharate adult H. virescens, and at 0.01 ng per second stadium M. sexta.

dose evoking positive EH-like response (active dose) [1]: 0.1 ng per pharate adult
dose evoking positive EH-like response (active dose) ([3]; in vivo): 0.01 ng per second stadium M. sexta
Substance: Eclosion hormone [EH]
effect on larval molt [2]: block the larval molt completely
mean time to molt ([3]; EH-affected larvae at room temperature ~21° C., controls 109 min): 50 min
